Each structure is given as a SMILES string. Where a name gives a salt, the structure may show the parent alone.

The values that follow come from patent US20130197047A1, “OPHTHALMIC COMPOSITIONS OF PARASYMPATHETIC STIMULANTS AND ANTI-INFLAMMATORIES FOR USE IN THE TREATMENT OF PRESBYOPIA” (priority 2006, published 2013).

One series concerns Presbiopic patients. The experiment in a line: Topical eye-drop treatment of presbyopic patients (100 patients, 4 groups), follow-up of near and distant visual sharpness and tolerance. The format is in vivo, human. As to conditions: of 100 patients treated. The procedure:
100 Presbiopic patients of both sexes, of age 40 to 65, were treated with the compositions of the invention. Exclusion criteria concerned patients with myopia or astigmatism higher than 1 dioptre, and hypermetropia greater than 3 dioptres as well as those with corneal, lens and vitreous opacitis, and chronic general pathologies. 4 Different groups of presbyopic population were differentiated: Group 1: Pure presbyopics Group 2: Presbyopics with hypermetropia Group 3: Presbyopics with phorias Group 4: Presbyopics with glaucoma Patients of all groups were treated with eye drops of different concentrations and combinations of medicaments acting on the ocular sympathetic innervation. Pure presbyopic patients (Group 1) were topically treated with 1% pilocarpine hydrochloride+0.5% diclofenac sodium, at 6 hr intervals during the daily hours; treatment was suspended at night. Presbyopics with hypermetropia (Group 2) were topically treated with 2% pilocarpine hydrochloride+0.5% diclofenac sodium, at 6 hr intervals during the daily hours. […] All patients were monitored after one week treatment and monthly during the first three months to evaluate dosage and side-effects. […]

The test system of a further series is presbyopic patient. The settings on record: does not solve blurred distant vision; cited from earlier work.

As for `CC[C@@H]1C(=O)OC[C@@H]1Cc1cncn1C` [pilocarpine hydrochloride], in the series with Presbiopic patients, the “patients showed intolerance (diarrhoea and dyspepsia)” value was 2 patients.

Consider `CNC(=O)Oc1ccc2c(c1)[C@]1(C)CCN(C)[C@@H]1N2C` [physostygmine], for which, in the series with presbyopic patient, the “result of topical application to presbyopic patient” value is given as “poor results”.
